In ChEMBL document CHEMBL1132892, “Cyclic thioether peptide mimetics as VCAM-VLA-4 antagonists” (Bioorg Med Chem Lett, 2000) one finds IC50 data, which are given here for four molecules.

In assay [1] the target is T1, Integrin alpha-4 (Homo sapiens, UniProt P13612).
T1 sequence (P13612 whole entry): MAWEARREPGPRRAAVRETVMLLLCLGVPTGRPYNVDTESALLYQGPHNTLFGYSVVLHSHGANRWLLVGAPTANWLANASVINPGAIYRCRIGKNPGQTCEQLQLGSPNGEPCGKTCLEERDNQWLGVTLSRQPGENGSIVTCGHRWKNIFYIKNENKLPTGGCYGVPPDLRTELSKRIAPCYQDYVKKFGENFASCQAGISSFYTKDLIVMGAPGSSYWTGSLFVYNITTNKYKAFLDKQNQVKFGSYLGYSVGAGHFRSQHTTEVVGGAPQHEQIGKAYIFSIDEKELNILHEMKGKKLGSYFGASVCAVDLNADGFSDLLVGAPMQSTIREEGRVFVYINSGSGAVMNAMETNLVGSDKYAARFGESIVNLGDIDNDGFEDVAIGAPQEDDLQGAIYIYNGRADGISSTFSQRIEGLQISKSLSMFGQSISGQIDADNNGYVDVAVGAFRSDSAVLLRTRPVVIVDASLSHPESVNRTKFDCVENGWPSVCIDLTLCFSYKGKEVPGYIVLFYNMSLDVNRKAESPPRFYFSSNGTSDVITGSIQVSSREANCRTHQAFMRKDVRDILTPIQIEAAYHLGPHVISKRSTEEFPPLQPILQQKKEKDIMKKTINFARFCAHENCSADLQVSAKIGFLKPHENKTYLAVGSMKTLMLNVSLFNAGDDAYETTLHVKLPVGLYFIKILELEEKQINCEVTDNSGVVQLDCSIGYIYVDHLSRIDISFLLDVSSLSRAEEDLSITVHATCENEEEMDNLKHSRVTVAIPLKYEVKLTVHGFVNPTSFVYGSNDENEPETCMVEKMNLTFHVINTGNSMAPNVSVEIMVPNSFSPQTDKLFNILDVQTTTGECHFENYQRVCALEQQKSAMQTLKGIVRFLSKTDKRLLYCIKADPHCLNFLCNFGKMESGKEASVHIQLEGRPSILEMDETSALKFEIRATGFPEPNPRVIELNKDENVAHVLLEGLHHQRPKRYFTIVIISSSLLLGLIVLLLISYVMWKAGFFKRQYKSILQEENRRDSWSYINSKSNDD
The assay is described as follows: Compound was evaluated for VCAM-VLA-4 antagonistic activity using solid phase assay. It counts as functional.

Assay [2] has as its target T1, Integrin alpha-4. The assay is described as follows: Compound was evaluated for VCAM-VLA-4 antagonistic activity using Ramos cell assay. Type of assay: functional, cell-based.

Each structure is given as a SMILES string.

The IC50 is the midpoint of a concentration-inhibition curve. A high value points to weaker potency in that assay. In turn, `CC(=O)N1CCC(c2ccc(O)cc2)C1C(=O)N[C@H]1CCSCC[C@@H](C(=O)O)NC(=O)C2(CCCC2)CCNC1=O` (some centres not stated) registered an IC50 in assay [1] of 35 nM. As for `CC(=O)N1CCC(c2ccc(O)cc2)C1C(=O)N[C@H]1CCSC[C@@H](C(=O)O)NC(=O)C2(CCCC2)CCNC1=O` (some centres not stated), the IC50 in assay [2] stood at 220 nM; in assay [1] it was 2.7 nM.

As to `CC(=O)N1CCC(c2ccc(O)cc2)C1C(=O)N[C@H]1CSSC[C@@H](C(=O)O)NC(=O)C2(CCCC2)CCNC1=O` (some centres not stated), the IC50 was 1.5 nM in assay [2] and 0.1 nM in assay [1]. The corresponding values for `CC(=O)N1CCC(c2ccc(O)cc2)C1C(=O)N[C@H]1CSCC[C@@H](C(=O)O)NC(=O)C2(CCCC2)CCNC1=O` (some centres not stated) are 20 nM and 0.5 nM.
